Reference: US20230241093A1, “TARGETING ADISPSIN FOR NONALCOHOLIC STEATOHEPATITIS (NASH)- INDUCED LIVER FIBROSIS” (The Trustees of Columbia University in the City of New York, priority 2020, published 2023)

System: hepatic stellate cells (HSC)
Assay: Gene expression in hepatic stellate cells after treatment with recombinant C3a
Assay type: cell-based
Conditions: recombinant C3a vs control (vehicle alone), FIG. 3B
Procedure: FIG. 3. Adipsin/C3a effects on liver fibrosis. A. Complement C3 cleavage products as assessed by Western blot in conditioned medium from hepatocytes with or without Adipsin expression. B. Gene expression in hepatic stellate cells (HSC) after treatment with vehicle or recombinant C3a.
The effects of Adipsin/C3a on liver fibrosis was analyzed.

recombinant C3a: recombinant complement C3 cleavage product C3a, used to treat hepatic stellate cells
Acta2 gene expression in hepatic stellate cells: dose dependent increase
Collal gene expression in hepatic stellate cells: dose dependent increase
